Where two headings read alike, the source gives them in different places.
What was measured:
SARS-CoV-2-Nluc = assay: microbe, parasite or virus in culture; assay type: cell-based
in vitro = conditions: human
[1] = Severe acute respiratory syndrome coronavirus 2, 48 h
[2] = Severe acute respiratory syndrome coronavirus 2, read-out: EC50 (µM) Replicate 1
[3] = Severe acute respiratory syndrome coronavirus 2, read-out: EC50 (µM) Replicate 2
[4] = read-out: EC50 (µM) Replicate 1
[5] = read-out: EC50 (µM) Replicate 2

Compound | EC50 (SARS-CoV-2-Nluc; [1]) [µM] | EC50 (SARS-CoV-2-Nluc; [2]) [µM] | EC50 (SARS-CoV-2-Nluc; [3]) [µM] | CC50 (in vitro; CC50) [µM] | CC50 (in vitro; CC50 (µM) Replicate 1) [µM] | CC50 (in vitro; CC50 (µM) Replicate 2) [µM] | Selectivity index (SI) = CC50/EC50 (SARS-CoV-2-Nluc) | EC50 (SARS-CoV-2-Nluc) [µM] | EC50 (SARS-CoV-2-Nluc; read-out: EC50) [µM] | EC50 (SARS-CoV-2-Nluc; [4]) [µM] | EC50 (SARS-CoV-2-Nluc; [5]) [µM]
O=C1c2c(O)c(=O)ccn2N([C@@H]2c3ccccc3SCc3c2ccc(F)c3F)[C@@H]2COCCN12 [Baloxavir] | > 10 | > 10 | > 10 | 47 ± 1.3 | 46 | 47.9 | – | – | – | – | –
CC1=CC[C@H](C(=O)N(c2cc(C#CC(C)(C)C)sc2C(=O)O)[C@H]2CC[C@](O)(CO[C@H]3CCOC3)CC2)CC1 [Radalbuvir] | > 10 | > 10 | > 10 | > 50 | > 50 | > 50 | – | – | – | – | –
COc1ccc2c(O[C@@H]3C[C@H]4C(=O)N[C@]5(P(=O)(O)Cc6c(F)cccc6F)C[C@H]5CCCCCCC[C@H](NC(=O)OC5CCCC5)C(=O)N4C3)cc(-c3csc(NC(C)C)n3)nc2c1Cl [GS-9256] | > 10 | > 10 | > 10 | 31.8 ± 10.9 | 39.5 | 24.1 | – | – | – | – | –
CC(C)c1nc(CN(C)C(=O)N[C@H](C(=O)N[C@@H](Cc2ccccc2)C[C@H](O)[C@H](Cc2ccccc2)NC(=O)OCc2cncs2)C(C)C)cs1 [Ritonavir] | > 10 | > 10 | > 10 | – | – | – | – | – | – | – | –
NC(=O)c1nc(F)c[nH]c1=O [Favipiravir (T-705), Favipiravir] | > 10 | > 10 | > 10 | > 50 | > 50 | > 50 | – | – | – | – | –
CC(C)CN(C[C@@H](O)[C@H](Cc1ccccc1)NC(=O)O[C@H]1CO[C@H]2OCC[C@H]21)S(=O)(=O)c1ccc(N)cc1 [Darunavir] | > 10 | > 10 | > 10 | > 50 | > 50 | > 50 | – | – | – | – | –
C=C1[C@H](CO)[C@@H](O)C[C@@H]1n1cnc2c(=O)[nH]c(N)nc21 [Entecavir] | > 10 | > 10 | > 10 | > 50 | > 50 | > 50 | – | – | – | – | –
COC[C@H]1C[C@@H](c2ncc(-c3ccc4c(c3)COc3cc5c(ccc6nc([C@@H]7CC[C@H](C)N7C(=O)[C@@H](NC(=O)OC)C(C)C)[nH]c65)cc3-4)[nH]2)N(C(=O)[C@H](NC(=O)OC)c2ccccc2)C1 [Velpatasvir] | > 10 | > 10 | > 10 | > 50 | > 50 | > 50 | – | – | – | – | –
CC[C@@H]1C[C@]1(NC(=O)[C@@H]1C[C@@H](Oc2cc(-c3csc(NC(C)C)n3)nc3c(Cl)c(OCCN4CCOCC4)ccc23)CN1C(=O)[C@@H](NC(=O)O[C@@H]1C[C@@H]2C[C@@H]2C1)C(C)(C)C)C(=O)O [GS-9451] | > 10 | > 10 | > 10 | > 50 | > 50 | > 50 | – | – | – | – | –
NC(=O)c1ncn([C@@H]2O[C@H](CO)[C@@H](O)[C@H]2O)n1 [Ribavirin] | > 10 | > 10 | > 10 | > 50 | > 50 | > 50 | – | – | – | – | –
CCOC(=O)/C=C/[C@H](C[C@@H]1CCNC1=O)NC(=O)[C@@H](CC(=O)[C@@H](NC(=O)c1cc(C)on1)C(C)C)Cc1ccc(F)cc1 [Rupintrivir] | 1.87 ± 0.47 | 1.53 | 2.2 | > 50 | > 50 | > 50 | >26.7 | – | – | – | –
COC(=O)N[C@H](C(=O)N1CC2(CC2)C[C@H]1c1ncc(-c2ccc3c(c2)C(F)(F)c2cc(-c4ccc5nc([C@@H]6[C@H]7CC[C@H](C7)N6C(=O)[C@@H](NC(=O)OC)C(C)C)[nH]c5c4)ccc2-3)[nH]1)C(C)C [Ledapisvir] | > 10 | > 10 | > 10 | > 50 | > 50 | > 50 | – | – | – | – | –
Fc1ccccc1-c1nc2ccn(Cc3ccc(-c4ccc(C(F)(F)F)cc4C(F)(F)F)nn3)cc-2n1 [Tegobuvir] | > 10 | > 10 | > 10 | 17.9 ± 3.1 | 20 | 15.7 | – | – | – | – | –
Nc1ccn([C@@H]2O[C@@](CO)(CCl)[C@@H](O)[C@H]2F)c(=O)n1 [ALS-8112] | > 10 | > 10 | > 10 | > 50 | > 50 | > 50 | – | – | – | – | –
Cc1cn2nc([C@@H]3CCCCN3C(=O)c3cc(Cl)ccc3NS(C)(=O)=O)cc2nc1N1CC[C@H](N)C1 [Presatovir] | 2.53 ± 0.69 | 3.01 | 2.04 | – | – | – | – | – | – | – | –
CC(C)c1nc(CN(C)C(=O)N[C@@H](CCN2CCOCC2)C(=O)N[C@H](CC[C@H](Cc2ccccc2)NC(=O)OCc2cncs2)Cc2ccccc2)cs1 [Cobicistat] | 2.7 | 2.6 | 2.88 | 47.3 ± 2.5 | 45.6 | 49.1 | 17.3 | 2.74 ± 0.2 | – | – | –
Voxilaprevir | – | – | – | – | – | – | – | – | > 10 | > 10 | > 10
CC(C)OC(=O)[C@H](C)N[P@](=O)(OC[C@H]1O[C@@](C#N)(c2ccc3c(N)ncnn23)[C@](C)(O)[C@@H]1OC(=O)C(C)C)Oc1ccccc1 [GS-6620] | > 10 | > 10 | > 10 | > 50 | > 50 | > 50 | – | – | – | – | –
CC(C)OC(=O)[C@H](C)N[P@](=O)(OC[C@H]1O[C@@H](n2ccc(=O)[nH]c2=O)[C@](C)(F)[C@@H]1O)Oc1ccccc1 [Sofosbuvir] | > 10 | > 10 | > 10 | > 50 | > 50 | > 50 | – | – | – | – | –
N#C[C@@]1(c2ccc3c(N)ncnn23)O[C@H](CO)[C@@H](O)[C@H]1O [GS-441524] | 0.869 ± 0.289 | 1.07 | 0.665 | > 50 | > 50 | > 50 | – | – | – | – | –
O=C(Nc1ccc([N+](=O)[O-])cc1Cl)c1cc(Cl)ccc1O [Niclosamide] | 0.715 ± 0.332 | 0.95 | 0.48 | 1.28 ± 0.23 | 1.44 | 1.12 | 1.8 | – | – | – | –
CC(C)(C)NC(=O)[C@@H]1CN(Cc2cccnc2)CCN1C[C@@H](O)C[C@@H](Cc1ccccc1)C(=O)N[C@H]1c2ccccc2C[C@H]1O [Indinavir] | > 10 | > 10 | > 10 | > 50 | > 50 | > 50 | – | – | – | – | –
CCC(CC)O[C@@H]1C=C(C(=O)O)C[C@H](N)[C@H]1NC(C)=O [Oseltamivir carboxylate] | > 10 | > 10 | > 10 | > 50 | > 50 | > 50 | – | – | – | – | –
COC(=O)N[C@H](C(=O)N[C@@H](Cc1ccccc1)[C@@H](O)CN(Cc1ccc(-c2ccccn2)cc1)NC(=O)[C@@H](NC(=O)OC)C(C)(C)C)C(C)(C)C [Atazanavir] | > 10 | > 10 | > 10 | > 50 | > 50 | > 50 | – | – | – | – | –
Nc1ccn(C[C@@H](CO)OCP(=O)(O)O)c(=O)n1 [Cidofovir] | > 10 | > 10 | > 10 | > 50 | > 50 | > 50 | – | – | – | – | –
CC#CC(=O)N1CC[C@@H](n2c(=O)n(-c3ccc(Oc4ccccc4)cc3)c3c(N)ncnc32)C1 [Tirabrutinib] | > 10 | > 10 | > 10 | > 50 | > 50 | > 50 | – | – | – | – | –
C=CC(=O)N1CCC[C@@H](n2nc(-c3ccc(Oc4ccccc4)cc3)c3c(N)ncnc32)C1 [Ibrutinib] | > 10 | – | – | > 50 | – | – | – | – | – | – | –
CCOC(=O)[C@H](C)N[P@](=O)(CO[C@@H]1C=C(F)[C@H](n2cnc3c(N)ncnc32)O1)Oc1ccccc1 [Rovafovir (GS-9131), Rovafovir] | – | – | – | – | – | – | – | – | > 10 | > 10 | > 10

Source: PMC7567097, “A nanoluciferase SARS-CoV-2 for rapid neutralization testing and screening of anti-infective drugs for COVID-19” (Nature Communications, 2020)
